Experimental data reported in patent US20200179392A1, “Idelalisib for Treating Proliferative Vitreoretinopathy and Abnormal Intraocular Neovascularization” (priority 2016, published 2020).

What was measured:
RPEM cells = assay: Cell migration (scratch) assay, RPEM cells with vitreous; type: cell-based, human; details: idelalisib 5 μM, 16 hours
Protocol: 3C. After the RPEM cells in a 12-well plate reached 90% confluence, the cultured wells were scratched with a 200 μl pipet tip and treated with RV supplemented with idelalisib (5 μM) or its vehicle. 16 hours later the pictures of the cells were taken and analyzed. A representative raw data of three experiments below the bar graphs is shown. Scale bar: 500 μm. RPEM cells in a 12-well plate were grown to near confluence, and then the wells with 90% confluent cells were scratched with 200 μl pipet tip. The cells were washed with PBS and treated with DMEM/F12 or RV (1:2 dilution in DMEM/F12) with or without idelalisib (5 μM). The scratched area was photographed to capture the initial width and photographed again 16 hours later. Analysis was conducted using Adobe Photoshop CS4 software. At least three independent experiments were performed.

[1] = tested on: PVR induced by RPEM cells; assay: Experimental PVR in rabbits; type: in vivo, rabbit
Protocol: PVR was induced in the right eyes of two to three-month-old Dutch Belted pigmented rabbits. Briefly, one week after gas vitrectomy, rabbits were intravitreally injected with platelet-rich plasma (PRP, 0.1 ml) and RPEM cells (300,000 cells) supplemented with either idelalisib (10 μM) or its vehicle (0.1% DMSO). Subsequently, the rabbits were examined at the indicated times and PVR stage was evaluated using a double blind approach with an indirect ophthalmoscope through a 30D lens, and then the PVR status for each rabbit was plotted (4A). The […] values are indicated at the top of the figure after a Mann-Whitney analysis. Representative rabbits on day 28 were examined by eletroretinography (ERG) (4B), optical coherence tomography (OCT) (4C) and histological analysis by hematoxylin & eosin stain (4D). The numbers in C and D (0, 2, 3, and 5) denote PVR stages in the examined rabbits. Single arrow points to the retina and double arrows point to cellular fibrotic membranes (4C). Arrowhead and double arrows indicate cellular membranes (4D).
As previously described^1, 55, PVR was induced in right eyes of two-three months old Dutch Belted rabbits purchased from Covance (Denver, Pa.). Briefly, a gas vitrectomy was performed by injecting 0.1 ml of perfluoropropane (C3F8) (Alcon, Fort Worth, Tex.) into the vitreous cavity 4 mm posterior to the corneal limbus. […]

HRECs [2] = assay: VEGF-induced wound healing (migration) assay in HRECs; type: cell-based, human; details: VEGF 20 ng/ml, idelalisib 5 μM, 18 hours
Protocol: A wound healing assay was performed as previously described^62 with minor modifications. Once cells reached 90% confluence in 48-well plates, they were starved for growth factors for 7 hours. A wound was created by scraping the cell monolayer with a sterile pipette tip (200 μl). The cells were washed twice to remove detached cells and then treated with VEGF (20 ng/ml) or VEGF plus idelalisib (5 μM). The wound was photographed at 18 hours post wounding with an EVOS FL Auto microscope (Thermo Scientific) as shown in 8B from three independent experiments^61.

HRECs [3] = assay: VEGF-induced cell proliferation assay in HRECs; type: cell-based, human; details: VEGF 20 ng/ml, idelalisib 5 μM, 48 hours
Protocol: In a cell proliferation assay, HRECs cells were seeded into 24-well plates at a density of 30,000 cells/well in an endothelial growth medium kit. After attaching the plates, the cells were starved for growth factors for 7 hours, and then treated with VEGF (20 ng/ml) or VEGF plus idelalisib (5 μM). After 48 hours, the cells were trypsin detached and then counted in a hemocytometer under a light microscope as shown in FIG. 10A from three independent experiments^50, 61.

activation of Erk = assay: Western blot of vitreous-induced Erk activation in RPEM cells; type: cell-based, human; details: idelalisib 10.0 μM (selective dose for PI3Kδ)
Protocol: 1B. After growth factor-deprivation, the RPEM cells were pretreated with idelalisib at indicated concentrations, or its vehicle for 30 minutes, and then treated with normal rabbit vitreous diluted (1:2) in DMEM (RV), V: vehicle (0.1% dimethyl sulfoxide) or PDGF-B (10 ng/ml). After the treatment for 30 minutes at 37° C., their lysates were subjected to a western blot analysis using the indicated antibodies. This is representative of three independent experiments. Cells grown to 90% confluence in wells of 24-well plates were serum starved for 24 hours, and then treated with appropriated agents. After two washes with ice-cold phosphate buffered saline (PBS), the cells were lysed in 1× sample buffer diluted with protein extraction buffer (10 mM Tris-HCl, pH 7.4; 5 mM […] (EDTA), 50 mM NaCl, 50 mM NaF, 1% Triton X-100, 20 μg/ml aprotinin, 2 mM Na3VO4, 1 mM phenylmethylsulfonyl fluoride] from 5× sample buffer [25 mM EDTA, 10% sodium dodecyl sulfate (SDS), 500 mM dithiothreitol (DTT), 50% sucrose, 500 mM Tris.HCl (pH=6.8), 0.5% bromophenol blue). The samples were boiled for 5 minutes and then centrifuged for 5 minutes at 13,000×g, 4° C. […] Signal intensity was determined by densitometry using NIH imageJ software^24, 44, 50.

SMILES: CC[C@H](Nc1ncnc2[nH]cnc12)c1nc2cccc(F)c2c(=O)n1-c1ccccc1 [idelalisib]
- effect on vitreous-induced migration of RPEM cells (RPEM cells): prevented
- rabbits developing to PVR stage 3 ([1]; idelalisib 10 μM intravitreal with PRP and RPEM cells): one of nine
- effect on pathogenesis of PVR ([1]; idelalisib 10 μM intravitreal, days 7, 14, 21 and 28, Mann-Whitney): significantly suppressed
- effect on VEGF-stimulated migration of HRECs (HRECs [2]): completely blocked
- effect on VEGF-stimulated cell proliferation of HRECs (HRECs [3]): completely blocked
- inhibition of vitreous-induced activation of Erk (activation of Erk): neither inhibited
